Here are results for one molecule from patent US20250229068A1, “ELECTROCONDUCTIVE MICRONEEDLE FOR DRUG DELIVERY INTO DEEP TISSUE” (The University of Hong Kong, priority 2024, published 2025).

The experiment has as its system CGRP gene expression in PC-12 cells. In words: RT-qPCR of CGRP gene in PC-12 cells. In kind it is cell-based. The settings on record: miconazole and electric current together (0.5 mA, 5 mins), 24 h. The procedure:
PC-12 cells are cultures with 10% FBS and 1% Penicillin-Streptomycin supplemented with DMEM and incubated in a humidified incubator (37° C., 5% CO2). For the experiment, 5×10^4 cells per well are seeded on to 24 well plates and incubate for 24 hours to form a uniform monolayer. After that, miconazole nitrate ([…]) and electrical stimulation (0.5 mA, 5 mins) are given as treatment. Further, untreated cells are served as a control. After the treatment, medium is changed for electrical stimulation group and incubate for another 24 h. After that, total RNA is extracted from the treated cells using RNeasy Mini Kit (Qiagen, Hilden, Germany) and checked the purity using NanoDrop (Thermo Fisher Scientific, USA). Next, RNA is reversely transcribed into cDNA using the First Strand cDNA kit (Takara, DaLian, China). Real-time quantitative PCR reaction is performed with cDNA using TB green Premix. The mean cycle threshold (Ct) value of each target gene is normalized to the housekeeping genes (i.e., GAPDH).
It is hypothesized that the miconazole nitrate molecules released from the electroconductive MNs may also trigger the release of the calcitonin gene-related peptide (CGRP) from nociceptive neurons under electrical stimulation. […]
(In general: Real-time PCR tracks product formation cycle by cycle.)

For the molecule `Clc1ccc(COC(Cn2ccnc2)c2ccc(Cl)cc2Cl)c(Cl)c1` (stereo not shown) [miconazole, miconazole nitrate], the “increase in the expression of CGRP” value is approximately 3 fold.
